{
  "source": "patent US20200270588A1",
  "about": "“GLUCOSYL TRANSFERASE POLYPEPTIDES AND METHODS OF USE” (Syngenta Participations AG, priority 2017, published 2020)",
  "assay_type_in_all_cases": "biochemical",
  "key": {"[1]": {"system": "Larkspur bx glucosyl transferase (SEQ ID NO 10)", "experiment": "UDP-Glo glucosyl transferase assay, purified enzyme", "conditions": "1 mM herbicide V", "experimental": "(§1) Glucosyl transferase activity is assayed via measurement of acceptor substrate-dependent production of UDP from ultrapure UDP-glucose using the Promega UDP-Glo™ method and according to the manufacturer's instructions. Assays are run in 96 well microtiter plates.\n(§2) Enzyme, typically at a stock concentration of ˜2 mg/ml is diluted to an appropriate concentration in 50 mM K^+ Hepes buffer at pH7.5 containing 0.5 mg/mL bovine serum albumin (BSA) and 5 ul aliquots of this diluted enzyme added to each well of a Perkin Elmer white ½ area 96 well plate. […] Assays are run for an appropriate time (usually 10 to 60 min) so that the amount of UDP formed lies within the most nearly linear part of the UDP standard curve and are stopped with the addition and mixing of 25 ul UDP-Glo™ detection reagent (prepared as described below). Plates are then incubated at room temperature for 60 minutes and then read in a luminescence plate reader (Perkin Elmer Envision 2130 Multilabel Reader). A UDP standard curve is run alongside each set of assays and reagent blank control assays run with DMSO in place of test herbicide. Typically, 300 pmol of UDP corresponds to a Relative Luminescence Unit (RLU) reading of about 1.5E7 and the response curve between 0 and 600 pmol is fitted to a polynomial function (see for example FIG. 2).\n(§3) The UDP-Glo™ reagents are made up and used according to the manufacturer's instructions. Thus, Nucleotide Detection Buffer and ATP are combined to make nucleotide detection reagent (NDR) dispensed into aliquots and frozen to be freshly thawed before use.\n(§4) Km and kcat values in respect of UDP-glucose are derived by carrying out experiments to measure initial rates over a suitable range of concentrations of UDP glucose out at a fixed near saturating concentration of acceptor substrate. Best fit values of kcat, Km and kcat/Km are obtained by direct fitting of the data to the Michaelis-Menten equation using Graphpad Prism™ software.\n(§5) DNA sequences, optimized for E. coli codon usage, corresponding to SEQ IDs 1-15, encoding BX8 and BX9 orthologue polypeptides derived from a range of species (as depicted in FIG. 1) were synthesized by Genewiz (South Plainfield, USA) with 5′ NdeI and 3′ XhoI restriction sites. The various orthologues were synthesized with either a N-terminal 6×His purification tag or C-terminal 6×His purification tag (i.e. tried both ways to achieve best expression of activity) and cloned into the E. coli expression plasmid pET24a (Novagen) via the NdeI and XhoI restriction sites. Expression, purification and assay was as described in Example 1.\n(§6) Assays were carried out as described in Example 1. Partly purified C-terminally his tagged w/t Larkspur enzyme (SEQ ID No 10 with a 6 amino acid C-terminal tag) catalyzed glucosyl transfer to herbicide V at a rate estimated to be about 0.0065/s/pmol at 1 mM herbicide V. The similarly-tagged w/t bx-like enzymes from rye (SEQ ID No 11) and from wheat (SEQ ID No 4) were also active but only at levels close to the detection limit at ˜0.0015/s/pmol. Further examples of assay results from further experiments are depicted in Table 14. All of the proteins were C-terminally his tagged versions of the sequences referenced except for the Zea mays bx8 SEQ ID NO: 2 which was N-terminally his tagged."}, "[2]": {"system": "rye bx-like glucosyl transferase (SEQ ID No 11)", "experiment": "UDP-Glo glucosyl transferase assay, purified enzyme", "conditions": "herbicide V; close to the detection limit", "experimental": "as §1, §2, §3, §4, §5, §6"}, "[3]": {"system": "SEQ ID 43, mutant bx-type glucosyl transferase", "experiment": "LC/MS glucosyl transferase assay (glucoside peak area), purified enzyme", "conditions": "about 60 min, ~15 pmol enzyme, nd = not detectable"}, "[4]": {"system": "SEQ ID 45, mutant bx-type glucosyl transferase", "experiment": "LC/MS glucosyl transferase assay (glucoside peak area), purified enzyme", "conditions": "about 60 min, ~15 pmol enzyme, nd = not detectable"}, "[5]": {"target": "T1, Zea mays bx8 (SEQ ID No: 2) with GIGVD peptide insert in place of D442 (Zea mays, UniProt Q8W2B7, INS441GIGV)", "T1 construct": "His tag (N); made in house; host or cells: E. coli, pET24a", "T1 sequence (Q8W2B7 other isoform, or with tags, fused parts or gaps INS441GIGV)": "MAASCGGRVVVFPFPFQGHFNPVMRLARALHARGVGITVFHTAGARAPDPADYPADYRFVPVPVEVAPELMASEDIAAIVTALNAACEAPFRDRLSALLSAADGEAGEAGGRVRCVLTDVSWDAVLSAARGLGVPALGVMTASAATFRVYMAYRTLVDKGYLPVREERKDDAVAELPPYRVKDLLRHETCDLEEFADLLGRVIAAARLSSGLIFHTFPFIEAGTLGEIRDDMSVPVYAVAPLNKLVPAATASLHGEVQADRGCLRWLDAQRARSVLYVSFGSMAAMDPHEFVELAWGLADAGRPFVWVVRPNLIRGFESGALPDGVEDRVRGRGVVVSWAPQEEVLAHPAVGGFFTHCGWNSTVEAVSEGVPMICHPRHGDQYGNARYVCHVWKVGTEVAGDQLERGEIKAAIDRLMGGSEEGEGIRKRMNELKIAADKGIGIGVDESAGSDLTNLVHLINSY", "experiment": "LC/MS glucosyl transferase assay (glucoside peak area), purified enzyme", "conditions": "LC/MS assay run for 30 min", "experimental": "In an alternative method for assaying the various enzymes, the test glucosyl transferase enzyme is reacted with substrates exactly as above except that the assay is stopped by adding an equal volume of acetonitrile. Alternatively 50 or 100 μl samples from assay reactions are added to 500 μl ethyl acetate to stop the reaction. In this case samples are then vortexed and 400 μl of the ethyl acetate partition removed, dried down, and resuspended in 100 μl 80:20 acetonitrile/water. The formation of product gluco side and/or disappearance of substrate test herbicide is then monitored directly by LC/MS. Samples are analyzed by LC-MS using an Agilent 1290 liquid chromatography system and Thermo Q-Exactive mass spectrometer. The chromatography is achieved on a Waters Acquity C18 BEH (50×2.1 mm) 1.7 μm particle size column, using a 6 minute gradient run of Water (0.2% formic acid) and Acetonitrile. The Q-Exactive is operated in positive ionisation electrospray mode, using Full scan-AIF mode, at 35,000 resolution, between 100-800 m/z. All analytes are identified from the full scan data to within at least 5 ppm accuracy of their predicted pseudo-molecular ion [M+H]^+ m/z value. In order to obtain quantitative data standard curves are run using herbicides and herbicide glucosides synthesized as standards. […]"}},
  "note": "“And” between values parts separate entries of the source, which are not always exact repeats. Equal values may be shown once.",
  "data": [
    {"smiles": "CN1CC(O)N(c2cc(C(F)(F)F)ccn2)C1=O", "note": "(centres unmarked) [Compound V]", "values": [
      {"measurement": "rate of glucosyl transfer", "setting": "[1]", "value": "about 0.0065 /s/pmol"},
      {"measurement": "rate of glucosyl transfer", "setting": "[2]", "value": "~0.0015", "unit": "s⁻¹ pmol⁻¹"},
      {"measurement": "integrated peak area of beta-glucoside product", "setting": "[3]", "value": "3.88E+05 and 2.26E+05"},
      {"measurement": "integrated peak area of beta-glucoside product", "setting": "[4]", "value": "1.56E+05 and 9.51E+04"},
      {"measurement": "integrated peak area of glucoside product", "setting": "[5]", "value": "2.5E6", "unit": "units"}
    ]}
  ]
}
